The values below come from publication PMC10250618, “Synthesis, structure-activity relationships and biological evaluation of benzimidazole derived sulfonylurea analogues as a new class of antagonists of P2Y1 receptor” (Frontiers in Pharmacology, 2023).

Values after ≈ are worked out from the molar mass of the structure shown. Where a name gives a salt, the structure may show the parent alone. Read-outs that look alike come from different tables or passages of the source.

For one data set, the system named is P2Y12. Also noted: method as in Oestreich, 2010; Boldron et al., 2014. To be noted: Figure 1, reported antagonists; ref Oestreich, 2010; Boldron et al., 2014; cited from earlier work.
The next data set has as its target P2Y1. To be noted: Figure 1, reported antagonist; cited from earlier work.
Another data set concerns P2X3. Also noted: method as in Bae et al., 2022. To be noted: Figure 1, reported antagonist; ref Bae et al., 2022; cited from earlier work.
A short description of data set [1]: MTT assay, non-transfected 1321N1 astrocytoma cells. The format is cell-based, human. To be noted: human, non-transfected 1321N1 astrocytoma cells; at 50 µM; non-transfected astrocytoma 1321N1 cells; triplicate; read-out: H-1321N1 Cell Line (%cytotoxicity ±SEM). How it is done:
(§1) A 96-well plate was used to plate 20,000 human 1321N1 astrocytoma cells and allowed for incubation for 24 h at temp of 37°C in CO2 (5%) incubator. Next to this, the prepared culture media was changed to media which was free from FBS, the test compounds were added and the incubation process was repeated. After incubation of 24 h, the serum free media from the wells was discarded, and 100 μL of the reagent i.e., MTT reagent was pipetted. Plate was then additionally incubated at 37°C for 4 h. Utilizing a microplate reader, absorbance was determined at 570 nm and 630 nm for calculation of cell viability (FLUOstarOmega Microplate Reader-BMG LABTECH GmbH, Ortenberg, Germany) ([Sauer et al., 2009]).
In general terms: Tetrazolium dyes change colour on reduction, which living cells bring about.

In the next data set the target is T1, t-P2Y1 (Meleagris gallopavo, UniProt P49652).
T1 construct: host or cells: human 1321N1 astrocytoma cells, stably transfected
The data set is described as follows: Calcium mobilization assay, t-P2Y1 transfected 1321N1 astrocytoma cells. To be noted: for IC50: Ca2+ mobilization inhibition, transfected 1321N1 cells, read-out: IC50 ± SEM t-P2Y1. The format is cell-based. How it is done:
(§2) Dr. Gary A. Weisman provided human-1321N1 astrocytoma cells that had been transfected by the tP2Y1R, hP2Y2R, hP2Y4R, and rP2Y6R and untransfected 1321N1 astrocytoma cells (University of Missouri Mo., Bond Life Science Center). The DMEM Dulbecco’s Modified Eagle -Medium (Gibco) was added in flasks to cultivate the cell line. 10% of the Fetal bovine serum was also added to the media together with 500 μg/mL of Geneticin (G418) and 1% of the Pen/Strep. The cells in T-75 flask were then cultured and incubated in a CO2 incubator which was maintained at (5%) and 37°C temperature until 90% of the cells were confluent. Throughout the experiment, cells were periodically checked for the confluency and strictly watched for the microbial contamination.
(§3) The FLUOstar Galaxy (BMG LABTECH GmbH, Ortenberg, Germany) microplate reader with two injectors was used to measure the Ca^2+ fluorescence of synthetic compounds. For this assay, 1321N1 transfected cells (t-P2Y1, h-P2Y2, h-P2Y4, and r-P2Y6) were cultured in T-75 flask. When cells reached the confluency of 80%–90%, they were washed with PBS and then Trypsin was added. After trypsinization for 3 min, 20,000 cells/well were allowed to seed in a black wall and 96 well clear bottom plate which was coated with Poly-D-Lysine and allowed to incubate for 24 h in 37°C, 5% CO2 incubator. After incubation, 200 μL culture media was changed with 100 μL HBSS containing Fura-2 AM which is calcium chelating dye and allowed the plate to incubate for 45 min in dark at temp of 37°C in incubator which is maintained with carbon dioxide (5% CO2). After incubation for 45 min, synthesized molecules were added to HBSS washed cells in each well of 96 well plate and re-incubated for 30 min at 37°C. In next step, injection of the endogenous ligand such as ADP through the injector was followed by excitation and emission measurements of Fura-2 AM at 380/520 nm and 340/520. Final volume of the assay per well 200 μL. IC50 values were computed for the compounds displaying more than 50% of activity using Prism 5.0 software (Graph Pad., Inc., San Diego. California, United States) by using analysis i.e., nonlinear regression ([Kassack et al., 2002]; [Ullmann et al., 2005]).
For orientation: A change in cytosolic calcium serves as a functional read-out for many receptors and channels.

The next data set concerns the target T2, r-P2Y6 (Rattus norvegicus, UniProt Q63371).
T2 construct: host or cells: human 1321N1 astrocytoma cells, stably transfected
The data set is described as follows: Calcium mobilization assay, r-P2Y6 transfected 1321N1 astrocytoma cells. The format is cell-based. Here is the method: as §2, §3

For a further data set, the target named is T3, h-P2Y4 (Homo sapiens, UniProt P51582).
T3 construct: host or cells: human 1321N1 astrocytoma cells, stably transfected
The data set is described as follows: Calcium mobilization assay, h-P2Y4 transfected 1321N1 astrocytoma cells. Type of data set: cell-based. To be noted: 500 μM UTP. Here is the method:
as §2, §3

The nature of data set [2]: Aqueous solubility assay (UV absorption). Type of data set: physicochemical. Here is the method: In eppendorf tubes, over-saturated chemical solutions were prepared by mixing synthesized compound with PBS buffer (pH 7.4). To confirm compound saturation, suspensions were rapidly vortexed for 1 min, sonicated at ambient temperature for 10 min, and then incubated with overnight shaking. After that, compound suspensions were centrifuged at 15,000 RPM for 20 min. Supernatants were cautiously taken out of the tubes and filtered once more using 0.22 µm syringe filters. By using UV-vis absorption spectrometry with standard curves and an already-determined absorption extinction coefficient in the same buffer, the concentrations of the drug in the supernatants were identified.

A short description of another data set: MTT assay, HeLa. Type of data set: cell-based. To be noted: human, HeLa cells; at 50 µM; triplicate; read-out: HeLa Cell Line (%cytotoxicity ±SEM).
Another data set is described as follows: MTT assay, HEK-293. To be noted: human, HEK-293 cells; at 50 µM; triplicate; read-out: HEK-293 Cell Line (%cytotoxicity ±SEM). Type of data set: cell-based.
The target in a further data set is T4, h-P2Y2 (Homo sapiens, UniProt P41231).
T4 construct: host or cells: human 1321N1 astrocytoma cells, stably transfected
The data set is described as follows: Calcium mobilization assay, h-P2Y2 transfected 1321N1 astrocytoma cells. To be noted: 500 μM ATP; for IC50: Ca2+ mobilization inhibition, transfected 1321N1 cells, read-out: IC50 ± SEM h-P2Y2. The format is cell-based. Here is the method:
as §2, §3

A further data set concerns H-1321N1 Cell Line. The data set is described as follows: MTT assay, non-transfected 1321N1 astrocytoma cells. To be noted: at 50 µM; non-transfected astrocytoma 1321N1 cells; triplicate. Type of data set: cell-based, human. Here is the method:
as §1

The test system of the next data set is HeLa Cell Line. The data set is described as follows: MTT assay, HeLa. Type of data set: cell-based. To be noted: at 50 µM; triplicate.
The test system of the next data set is HEK-293 Cell Line. The data set is described as follows: MTT assay, HEK-293. Type of data set: cell-based. To be noted: at 50 µM; triplicate.
The conditions of data set [3]: was reported; cited from earlier work.
For another data set, the target named is hP2Y1. Also noted: method as in Peng et al., 2018. To be noted: Figure 1, reported antagonist; ref Peng et al., 2018; cited from earlier work.
Another data set has as its system hP2Y2. Also on record: method as in Bano et al., 2021. To be noted: Figure 1, reported antagonist; ref Bano et al., 2021; cited from earlier work.

T4 sequence (P41231 whole entry): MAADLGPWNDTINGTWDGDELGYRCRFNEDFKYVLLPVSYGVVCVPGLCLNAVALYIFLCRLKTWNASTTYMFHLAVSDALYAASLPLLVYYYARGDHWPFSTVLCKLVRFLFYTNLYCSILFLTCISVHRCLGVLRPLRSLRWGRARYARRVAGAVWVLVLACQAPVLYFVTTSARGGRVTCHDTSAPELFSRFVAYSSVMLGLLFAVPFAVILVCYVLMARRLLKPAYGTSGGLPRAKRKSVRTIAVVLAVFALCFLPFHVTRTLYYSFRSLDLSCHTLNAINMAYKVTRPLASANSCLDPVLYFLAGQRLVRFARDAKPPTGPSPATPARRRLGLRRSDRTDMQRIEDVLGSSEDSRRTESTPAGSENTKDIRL
T2 sequence (Q63371 whole entry): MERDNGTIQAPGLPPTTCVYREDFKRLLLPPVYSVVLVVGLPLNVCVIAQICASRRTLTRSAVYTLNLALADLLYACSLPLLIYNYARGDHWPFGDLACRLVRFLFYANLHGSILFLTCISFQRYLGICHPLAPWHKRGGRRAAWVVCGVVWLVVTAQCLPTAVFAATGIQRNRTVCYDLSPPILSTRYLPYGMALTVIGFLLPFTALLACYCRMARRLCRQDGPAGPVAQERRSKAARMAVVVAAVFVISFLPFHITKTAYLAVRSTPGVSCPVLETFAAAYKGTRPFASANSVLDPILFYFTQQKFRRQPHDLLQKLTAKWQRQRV
T1 sequence (P49652 whole entry): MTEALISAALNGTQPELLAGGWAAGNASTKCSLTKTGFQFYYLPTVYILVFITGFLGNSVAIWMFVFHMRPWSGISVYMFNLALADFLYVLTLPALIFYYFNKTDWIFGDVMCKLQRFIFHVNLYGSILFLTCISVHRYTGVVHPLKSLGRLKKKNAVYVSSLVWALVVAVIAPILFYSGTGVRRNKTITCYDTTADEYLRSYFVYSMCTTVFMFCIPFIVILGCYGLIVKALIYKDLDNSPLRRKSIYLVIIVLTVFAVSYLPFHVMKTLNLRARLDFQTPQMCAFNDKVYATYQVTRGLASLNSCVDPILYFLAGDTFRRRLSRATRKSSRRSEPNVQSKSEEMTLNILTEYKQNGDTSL
T3 sequence (P51582 whole entry): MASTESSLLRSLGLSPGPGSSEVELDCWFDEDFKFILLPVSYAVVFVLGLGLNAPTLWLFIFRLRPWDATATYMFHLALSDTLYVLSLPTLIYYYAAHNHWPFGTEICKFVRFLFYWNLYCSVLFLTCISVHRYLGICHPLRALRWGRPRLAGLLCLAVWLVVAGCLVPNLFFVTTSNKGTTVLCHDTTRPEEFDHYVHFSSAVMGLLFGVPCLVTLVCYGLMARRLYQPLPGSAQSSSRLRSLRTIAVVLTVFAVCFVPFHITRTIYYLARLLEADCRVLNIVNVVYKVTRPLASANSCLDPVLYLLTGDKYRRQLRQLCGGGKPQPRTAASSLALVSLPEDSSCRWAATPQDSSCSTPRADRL

Take `CNc1cc2[nH]c(=O)n(-c3ccc(NC(=O)NS(=O)(=O)c4ccc(Cl)s4)cc3)c(=O)c2cc1F` [Elinogrel]: in the data set on P2Y12, the IC50 (in general, the point on the concentration scale where inhibition reaches its midpoint) was 20 nM.
For the compound `CNc1nc(I)nc2c1ncn2C1CC(OP(=O)(O)O)C2(COP(=O)(O)O)CC12` (centres unmarked) [MRS2500], on P2Y1, the Ki (commonly the dissociation constant of the complex between target and ligand, obtained from inhibition or displacement) is 0.78 nM.
Take `Cc1nc2c([nH]1)C(=O)C(Cl)=C(Nc1ccc(F)c(F)c1)C2=O` [KCB77033]: the concentration for half-maximal inhibition (IC50) with P2X3 was 1030 nM.
As to `Nc1nc2cc(Cl)ccc2n1C(=O)NS(=O)(=O)c1cc(Cl)cc(Cl)c1O` [1h, 2-Amino-5-chloro-N-((3,5-dichloro-2-hydroxyphenyl)sulfonyl)-1H-benzo [d]imidazole-1-carboxamide], the melting point – broadly, the temperature of the solid-liquid transition – lay in the range of 124 to 126 °C. For the same compound, the cytotoxicity at 24 h, 50 µM in data set [1] was found to be 32.8 ± 0.7%. In addition, the IC50 at t-P2Y1 (100 μM ADP) is 190 ± 40 nM. In addition, the “inhibition of P2Y2 less as compared to P2Y1” value on t-P2Y1 (P2Y2 versus P2Y1) was 20 fold. At r-P2Y6, the “activity against P2Y6 in words” value is “inactive”. Further, the inhibition (usually how much of the control response was suppressed) at 100 µM on r-P2Y6 (1321-N1, final conc of 100 μM, 100 μM of UDP) amounted to 34%. In addition, on h-P2Y4 (Ca2+ mobilization inhibition, transfected 1321N1 cells, read-out: IC50 ± SEM h-P2Y4), the IC50 was found to be 910 ± 40 nM. The solubility – broadly, the concentration that dissolves in the medium under given conditions – in data set [2] (Figure 7, UV absorption at 384 nm) turned out to be 287 µg/mL (≈ 659 µM). The solubility in data set [2] (aqueous buffer, thermodynamic from solid, PBS buffer (pH 7.4), UV absorption spectroscopy, read-out: aqueous solubility) turned out to be 287 µg/mL (≈ 659 µM). Also, in the data set “MTT assay, HeLa”, the cytotoxicity at 24 h, 50 µM stood at 22.3 ± 0.8%. The cytotoxicity at 24 h, 50 µM in “MTT assay, HEK-293” is 27.4 ± 1.2%. In addition, the IC50 at h-P2Y2 was found to be 4130 ± 1020 nM.
For the compound “2-Amino-5-nitro-N-((4-nitrophenyl)sulfonyl)-1H-benzo [d]imidazole-1-carbox amide [1d]”, in the data set on H-1321N1 Cell Line, the “H-1321N1 Cell Line (%cytotoxicity ±SEM)” value is 15.9 ± 0.3%. Moreover, on t-P2Y1 (final conc of 100 μM, 100 μM ADP), the “% Inhibition t-P2Y1” value is listed as 43%. Besides, the “r-P2Y6 % Inhibition” value at r-P2Y6 (Supplementary Table 2) turned out to be 39%. In addition, on r-P2Y6 (final conc of 100 μM, 100 μM of UDP), the “% Inhibition r-P2Y6” value was 39%. Also, the “% Inhibition h-P2Y4” value on h-P2Y4 (final conc of 100 μM) worked out at 48%. Besides, in the data set on HeLa Cell Line, the “HeLa Cell Line (%cytotoxicity ±SEM)” value was 28.3 ± 0.4%. Besides, the “HEK-293 Cell Line (%cytotoxicity ±SEM)” value in the data set on HEK-293 Cell Line is reported as 20.3 ± 0.6%. At h-P2Y2 (final conc of 100 μM), the “% Inhibition h-P2Y2” value stood at 41%.
Turning to `CCCC(=O)c1cnn(-c2ccc(NC(=O)c3cn(CC(=O)N4CCNCC4)c4ccc(Cl)cc34)nn2)c1C` [SAR 216471 hydrochloride], in the data set on P2Y12, the IC50 was 17 nM.
Consider `CC(C)(C)c1ccccc1Oc1ncccc1NC(=O)Nc1ccc(OC(F)(F)F)cc1` [BPTU, 1-(2-(2-tert-butyl-phenoxy)pyridin-3-yl)-3–4-(trifluoromethoxy) phenylurea], for which the solubility in water result in [3] is “less than 0.1 mg/mL”. For the same compound, the Ki on hP2Y1 was 6 nM.
With `Cc1ccc(C(=O)Nc2ccc(S(=O)(=O)O)c3cc(S(=O)(=O)O)cc(S(=O)(=O)O)c23)cc1NC(=O)c1cccc(NC(=O)Nc2cccc(C(=O)Nc3cc(C(=O)Nc4ccc(S(=O)(=O)O)c5cc(S(=O)(=O)O)cc(S(=O)(=O)O)c45)ccc3C)c2)c1` [Suramin, reference compound], the cytotoxicity at 24 h, 50 µM came to 12.3 ± 0.2% in [1]; 37.5 ± 0.2% in “MTT assay, HeLa”; 11.1 ± 0.2% in the data set “MTT assay, HEK-293”. In addition, the IC50 at t-P2Y1 (100 μM ADP) is 150 ± 10 nM; on h-P2Y2 it was 3310 ± 80 nM; with hP2Y2 it was 48000 nM.
